From patent US7179823B1, “5-membered n-heterocyclic compounds with hypoglycemic and hypolipidemic activity” (Takeda Pharmaceutical Company Limited, priority 1999, dated 2007) come the findings set out here.

Like-named read-outs stand apart in the source and are kept apart here.

As usually defined, the EC50 is the concentration needed to bring the measured effect to its halfway point. In general, melting point refers to the temperature of the solid-liquid transition.

The test system of one data set is KKA^y mice. In words: Hypoglycemic and hypolipidemic actions in mice. The data set is classed as in vivo. The following applies: Mus musculus, po, 96 h, four days; for inhibition in vivo at 0.001 %: 0.001% in powdery diet; for inhibition in vivo at 0.01 %: 0.01% in powdery diet; for inhibition in vivo at 0.0003 %: 0.0003% in powdery diet; for inhibition in vivo at 0.005 %: 0.005% in powdery diet. In outline: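 Obese type 2 diabetic KKA^y mice (9-12 weeks, n=5) received compound mixed in powdered diet at 0.0003-0.01% ad libitum for four days. Plasma glucose and triglycerides from orbital venous blood measured enzymatically; values are percent reduction versus untreated group.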

Another data set addresses T1, PPARγ-RXRα heterodimer (Homo sapiens, UniProt P37231).
T1 construct: expressed in transfected cells; host or cells: CHO-K1
T1 sequence (P37231 1-477 isoform P37231-2): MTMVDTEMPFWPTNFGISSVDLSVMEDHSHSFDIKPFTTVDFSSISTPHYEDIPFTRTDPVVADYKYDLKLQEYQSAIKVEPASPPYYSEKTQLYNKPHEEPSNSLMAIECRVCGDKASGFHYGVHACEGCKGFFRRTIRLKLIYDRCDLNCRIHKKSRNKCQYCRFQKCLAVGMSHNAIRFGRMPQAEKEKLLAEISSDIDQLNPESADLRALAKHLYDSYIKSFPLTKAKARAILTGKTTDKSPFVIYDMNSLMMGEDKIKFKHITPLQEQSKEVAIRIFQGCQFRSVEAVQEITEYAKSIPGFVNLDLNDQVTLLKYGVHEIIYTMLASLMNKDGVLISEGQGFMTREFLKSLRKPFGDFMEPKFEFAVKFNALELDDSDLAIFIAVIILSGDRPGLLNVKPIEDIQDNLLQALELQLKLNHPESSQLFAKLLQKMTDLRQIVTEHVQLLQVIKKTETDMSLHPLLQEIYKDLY
T1 sequence (P19793 1-462 partner): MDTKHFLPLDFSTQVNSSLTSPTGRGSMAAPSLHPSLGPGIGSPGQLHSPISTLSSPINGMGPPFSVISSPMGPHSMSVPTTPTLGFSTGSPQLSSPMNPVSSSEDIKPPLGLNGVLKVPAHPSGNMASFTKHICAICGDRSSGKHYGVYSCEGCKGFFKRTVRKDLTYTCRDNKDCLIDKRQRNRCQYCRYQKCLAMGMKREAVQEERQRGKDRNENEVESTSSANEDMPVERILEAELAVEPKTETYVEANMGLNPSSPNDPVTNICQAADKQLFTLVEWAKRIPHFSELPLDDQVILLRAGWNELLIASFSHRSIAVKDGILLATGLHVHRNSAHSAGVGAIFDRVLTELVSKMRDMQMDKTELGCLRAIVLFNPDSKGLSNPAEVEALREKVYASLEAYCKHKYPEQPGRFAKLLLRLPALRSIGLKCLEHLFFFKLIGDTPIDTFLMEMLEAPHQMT
Briefly: PPARγ-RXRα heterodimer ligand activity (luciferase reporter, PPARγ:RXRα:4ERPP/CHO-K1 cells). The data set is classed as cell-based. The following applies: 48 hours, concentration for 50% of the maximum fold induction. Here is the method:
(PPARγ-RXRα Heterodimer Ligand Activity)
A PPARγ:RXRα:4ERPP/CHO-K1 cells obtained in Reference Example 5 described later were cultured in HAM F12 medium (produced by NISSUI SEIYAKU) containing 10% Fetal bovine serum (produced by Life Technologies, Inc., USA) and then inoculated to a 96-well white plate (produced by Corning Costar Corporation, USA) at the density of 2×10^4 cells/well, and cultured in a CO2 gas incubator at 37° C. overnight.
After washing the 96 well white plate with PBS (Phosphate-buffered saline), 90 μl of HAM F12 medium containing 0.1% fatty acid-free bovine serum albumin (BSA) and 10 μl of test compound were added, which was cultured in a CO2 gas incubator at 37° C. for 48 hours. After removing the medium, 40 μl of PIKKAGENE 7.5 (produced by Wako Pure Chemical Industries, Ltd.) was added. After stirring, the luciferase activity was determined using Lumistar (produced by BMG Labtechnologies GmbH, Germany).
A fold induction was calculated based on the luciferase activity of each test compound by taking the luciferase activity in the non-treatment group as 1. The values of the test compound concentration and the fold induction were analyzed using PRISM 2.01 (produced by GraphPad Software Inc. USA) to calculate the EC50 values, the effective concentration of a test compound for 50% of the maximum fold induction.
(Introduction of Human PPARγ- and RXRα-Expressing Plasmid and Reporter Plasmid into CHO-K1 Cell and Establishment of Expressed Cell)
After a CHO-K1 cell cultured in a 750 ml tissue culture flask (produced by Corning Costar Corporation, USA) containing HAM F12 medium (produced by NISSUI SEIYAKU) supplemented with 10% Fetal Bovine Serum (produced by Life Technologies, Inc., USA) was scraped by treating with 0.5 g/L trypsin-0.2 g/L EDTA (ethylenediaminetetraacetic acid) (produced by Life Technologies, Inc., USA), the cell was washed with PBS (phosphate-buffered saline) (produced by Life Technologies, Inc., USA), centrifuged (1000 rpm, 5 minutes), and then suspended in PBS. Subsequently, a DNA was introduced into the cell under the condition shown below using GENE PULSER (produced by Bio-Rad Laboratories, USA).
Namely, to a cuvette having a 0.4 cm gap, added were 8×10^6 cells and 10 μg of plasmid pVgRXR2-hPPAR γ obtained in Reference Example 3 and 10 μg of reporter plasmid pGL3-4ERPP-TK neo obtained in Reference Example 4, which was subjected to electroporation at the voltage of 0.25 kV under the capacitance of 960 μF. Subsequently, the cell was transferred into a HAM F12 medium containing 10% Fetal Bovine Serum and cultured for 24 hours and then the cell was scraped again and centrifuged, and then suspended in HAM F12 medium containing 10% Fetal Bovine Serum supplemented with 500 μg/ml of GENETICIN (produced by Life Technologies, Inc., USA) and 250 μg/ml of ZEOCIN (produced by Invitrogen, USA) and diluted to the density of 10^4 cells/ml upon inoculation to a 96-well plate (produced by Corning Costar Corporation, USA), which was cultured in a CO2 gas incubator at 37° C., whereby obtaining a GENETICIN- and ZEOCIN-resistant transformant.
Subsequently, after the transformant cell line thus obtained was cultured in a 24-well plate (produced by Corning Costar Corporation, USA), selected was a cell line in which the luciferase was expressed and induced, i.e., PPARγ:RXRα:4ERPP/CHO-K1 cell by addition of 10 μM pioglitazone hydrochloride.

Where [1] appears, read: percent reduction of plasma glucose compared with the non-treatment group, read-out: Hypoglycemic action (%).
[2] abbreviates: percent reduction of plasma triglyceride compared with the non-treatment group, read-out: Hypolipidemic action (%).

Take `Cc1oc(-c2cccs2)nc1COc1ccc(Cn2cc(CCC(=O)O)c(-c3ccccc3)c2)cc1` [Example 9, 3-[1-[4-[5-methyl-2-(2-thienyl)-4-oxazolylmethoxy]benzyl]-4-phenyl-3-pyrrolyl]propionic acid]: the melting point is 117 to 118 °C. Besides, in the data set on KKA^y mice (setting [1]), the inhibition in vivo at 0.001 % is 48%. Besides, in the data set with KKA^y mice (setting [2]), the inhibition in vivo at 0.001 % came out at 70%. This compound yielded an EC50 on PPARγ-RXRα heterodimer of 0.0015 µM.
Regarding `O=C(O)CCc1cn(Cc2ccc(OCc3cccnc3)cc2)cc1-c1ccccc1` [Example 12, 3-[4-phenyl-1-[4-(3-pyridylmethoxy)benzyl]-3-pyrrolyl]propionic acid], the melting point fell in the range of 131 to 132 °C. Moreover, in the data set with KKA^y mice (setting [1]), the inhibition in vivo at 0.01 % turned out to be 46%. Besides, the inhibition in vivo at 0.01 % in the data set with KKA^y mice (setting [2]) worked out at 63%. The same compound yielded an EC50 at PPARγ-RXRα heterodimer of 0.32 µM.
For `O=C(O)CCc1cn(Cc2ccc(OCc3csc(-c4ccccc4)n3)cc2)cc1-c1ccccc1` [Example 30, 3-[4-phenyl-1-[4-(2-phenyl-4-thiazolylmethoxy)benzyl]-3-pyrrolyl]propionic acid], in that order: 111 to 112 °C, 54%, 77% and 0.0097 µM.
Turning to `O=C(O)CCc1cn(Cc2ccc(OCc3csc(-c4ccco4)n3)cc2)cc1-c1ccccc1` [Example 38, 3-[1-[4-[2-(2-furyl)-4-thiazolylmethoxy]benzyl]-4-phenyl-3-pyrrolyl]propionic acid], the melting point is 114 to 115 °C. For the same compound, the inhibition in vivo at 0.0003 % in the data set on KKA^y mice (setting [1]) is 44%. Further, in the data set with KKA^y mice (setting [2]), the inhibition in vivo at 0.0003 % worked out at 69%. Also, it took 0.038 µM to reach a half-maximal effect on PPARγ-RXRα heterodimer (EC50).
Consider `O=C(O)CCc1cn(Cc2ccc(OCc3csc(-c4cccs4)n3)cc2)cc1-c1ccccc1` [Example 40, 3-[4-phenyl-1-[4-[2-(2-thienyl)-4-thiazolylmethoxy]benzyl]-3-pyrrolyl]propionic acid], for which the melting point fell in the range of 106 to 107 °C. Further, the inhibition in vivo at 0.0003 % in the data set on KKA^y mice (setting [1]) was 41%. Also, the inhibition in vivo at 0.0003 % in the data set on KKA^y mice (setting [2]) stood at 66%. This compound also returned an EC50 on PPARγ-RXRα heterodimer of 0.057 µM.
For `O=C(O)CCc1cn(Cc2ccc(OCc3coc(-c4ccccc4)n3)cc2)cc1-c1ccccc1` [Example 44, 3-[4-phenyl-1-[4-(2-phenyl-4-oxazolylmethoxy]benzyl]-3-pyrrolyl]propionic acid], in that order: 139 to 140 °C, 47%, 74% and 0.013 µM.
For `Cc1oc(-c2ccccc2)nc1COc1ccc(Cn2cc(CCC(=O)O)c(-c3ccccc3)n2)cc1` [Example 89, 3-[1-[4-(5-methyl-2-phenyl-4-oxazolylmethoxy)benzyl]-3-phenyl-1H-pyrazol-4-yl]propionic acid], the melting point lay within 179 to 180 °C. In the data set on KKA^y mice (setting [1]), the inhibition in vivo at 0.01 % turned out to be 48%. In addition, the inhibition in vivo at 0.01 % in the data set with KKA^y mice (setting [2]) is 70%. The compound further displayed an EC50 at PPARγ-RXRα heterodimer of 0.00023 µM.
For the compound `CCOc1nn(Cc2ccc(OCc3nc(-c4ccccc4)oc3C)nc2)cc1CC(=O)O` [Example 262, 3-ethoxy-1-[6-(5-methyl-2-phenyl-4-oxazolylmethoxy)-3-pyridylmethyl]-1H-pyrazol-4-ylacetic acid], the melting point was 126 to 127 °C. Moreover, in the data set on KKA^y mice (setting [1]), the inhibition in vivo at 0.005 % is 45%. The inhibition in vivo at 0.005 % in the data set on KKA^y mice (setting [2]) stood at 61%. The EC50 at PPARγ-RXRα heterodimer came to 0.033 µM.
For `Cc1oc(-c2ccccc2)nc1COc1ccc(Cn2cc(CCC(=O)O)c(-c3ccccc3)n2)cn1` [Example 283, 3-[1-[2-(5-methyl-2-phenyl-4-oxazolylmethoxy)-5-pyridylmethyl]-3-phenyl-1H-pyrazol-4-yl]propionic acid], the values for the inhibition in vivo at 0.005 % with KKA^y mice (setting [1]) and in the data set with KKA^y mice (setting [2]) were 52% and 78%, respectively. The compound also came in with an EC50 on PPARγ-RXRα heterodimer of 0.00022 µM.
